In US7700615B2, “Cell migration inhibiting compositions and methods and compositions for treating cancer” (Avolix Pharmaceuticals, Inc., priority 2002, dated 2010):

Columns and labels:
[1] = system: breast cancer cell line MDA-MB-231; assay: Cell migration rate dose response, breast cancer cells; assay type: cell-based, human; details: concentration of 2.00 μM
Description: (§1) The guided cell sedimentation apparatus may be used to deposit cells onto a substrate at predetermined locations. A manifold and a substrate as described above may be stored in autoclave bags and steam autoclaved for about 1 hour to sterilize the manifold. The manifold may then be stored at about 4° C. until testing is to be performed. FIG. 3 illustrates a top schematic view of substrate 14. Prior to deposition, the surface of substrate 14 onto which the cells will be deposited is treated according to the experiment to be performed. For example, about 20 μl of a surface coating may be added to each well and incubated for about 1 hour at about 37° C. Just prior to deposition of the cells, Teflon-defined wells 24 on the substrate are hydrated in a culture media appropriate for the cells under study. Approximately 50 μl of culture media is deposited onto each well. […]
(§2) Cell migration may be monitored over time by monitoring the location of individual cells over time or measuring the radius of a circle surrounding the cells over time. […] The peripheral cells are easily detected because the cells can be deposited as a confluent monolayer within a predetermined area. […] Alternatively, designations such as numbers can be assigned to individual cells such that cells may be counted or characterized within the deposited sample of cells. […]

[2] = system: normal fibroblasts; assay: Cell migration of normal fibroblasts; assay type: cell-based; details: compared with control sample of untreated cells
Description: (§3) The guided cell sedimentation apparatus may be used to deposit cells onto a substrate at predetermined locations. A manifold and a substrate as described above may be stored in autoclave bags and steam autoclaved for about 1 hour to sterilize the manifold. The manifold may then be stored at about 4° C. until testing is to be performed. FIG. 3 illustrates a top schematic view of substrate 14. Prior to deposition, the surface of substrate 14 onto which the cells will be deposited is treated according to the experiment to be performed. For example, about 20 μl of a surface coating may be added to each well and incubated for about 1 hour at about 37° C. Just prior to deposition of the cells, Teflon-defined wells 24 on the substrate are hydrated in a culture media appropriate for the cells under study. Approximately 50 μl of culture media is deposited onto each well. […] A small aliquot of the culture media (i.e., about 1 μl) is aspirated from each channel of the manifold to eliminate air bubbles within the channels.
The cells are harvested from a culture according to any method known in the art. The cell concentration is adjusted to about 2000 cells/μl. An appropriate cell concentration may vary depending on the cell type. The cells are deposited into each channel in a volume of about 1 μl. The number of cells deposited onto the substrate varies depending upon the physical characteristics of the cells under study. For example, about 500 to about 3000 cells are deposited in each location. The manifold, substrate, and cells should stand undisturbed for a period of time of, for example, about 30 minutes. During the time, the cells will sediment. Sedimentation is generally defined as a process in which gravity causes heavier objects in a suspension to settle to the lowest part of the system. As used herein, sedimentation refers to the process in which gravity causes cells to settle through a standing column of culture media that fills the channels in the manifold. Forces greater than gravity should be avoided to prevent damage of the cells.
The manifold, substrate, and cells are transferred to a controlled temperature and atmosphere tissue culture incubator for several hours to overnight to allow the cells to attach to the surface of the substrate. Appropriate conditions for the incubator are about 37° C., about […] (CO2), and humidified air. The cells sediment onto a defined location at the bottom of the channel. Therefore, when the manifold is removed from the substrate, the cells are deposited as discs 26 of cells at predetermined locations on the substrate, as shown in FIG. 3. Such sedimentation of cells may further include any other steps of the methods as described by Berens. After the cells are attached and the manifold has been removed, the cells in each well may be re-fed with an appropriate solution.
as §2

[3] = system: MDA-MB-231 breast cancer cells; assay: scid mouse human breast tumor model (tumor growth, survival); assay type: in vivo, scid mice
Description: Measuring the synergy of a combination of a chemical and a chemotherapeutic agent may also be performed by evaluating the growth inhibitory effects of a chemotherapeutic agent and a cell migration inhibitor in a severe combined immunodeficient (scid) mouse human tumor model. Such measurements include screening mice for immunoglobulin (Ig) production by an enzyme-linked immunosorbent assay (ELISA). A number of mice are injected with cancer cells in saline using a subcutaneous (SC) injection. Mice with established tumors are selected and stratified according to groups including: a control group, a group treated with a chemotherapeutic agent alone, a group treated with a cell migration inhibitor alone, and one or more groups treated with various combinations of the chemotherapeutic agent and the cell migration inhibitor. The groups designated to be treated with at least the chemotherapeutic agent are injected with the chemotherapeutic agent or the chemotherapeutic agent diluent by intraperitoneal (IP, within abdominal cavity) injection on the first day of treatment. […] Tumor growth may be measured about twice a week throughout the experiment, and the tumor volume may be estimated using the following formula: [(width)^2×length]/2. […]
The scid mouse human breast tumor model was used to evaluated cancer cells of the cell line MDA-MB-231 treated with various compositions. […]

[4] = system: lung cancer cell line MV522; assay: Cell migration inhibition of lung cancer cells; assay type: cell-based; details: compared with untreated control sample
Description: as §1, §2

[5] = system: melanoma cancer cell line WM1791C; assay: Cell migration rate dose response, melanoma cancer cells; assay type: cell-based; details: concentration of 0.025 μM
Description: as §1, §2

[6] = system: glioma cancer cell line SF 767; assay: Cell migration rate dose response, glioma cancer cells; assay type: cell-based; details: concentration of 2.00 μM
Description: as §1, §2

[7] = system: HUVEC cells; assay: Angiogenesis inhibition: cell migration of HUVEC cells; assay type: cell-based, Human; details: compared with untreated control sample
Description: as §3
The cells are harvested from a culture according to any method known in the art. The cell concentration is adjusted to about 2000 cells/μl. An appropriate cell concentration may vary depending on the cell type. The cells are deposited into each channel in a volume of about 1 μl. The number of cells deposited onto the substrate varies depending upon the physical characteristics of the cells under study. For example, about 500 to about 3000 cells are deposited in each location. The manifold, substrate, and cells should stand undisturbed for a period of time of, for example, about 30 minutes. […]
as §2

[8] = system: pancreatic cancer cell line MiaPaCa-2; assay: Cell migration inhibition of pancreatic cancer cells; assay type: cell-based; details: compared with untreated control sample
Description: as §1, §2

Cc1ccc(C(=O)O)cc1[N+](=O)[O-] [4-methyl-3-nitro-benzoic acid]
cell migration rate [1]: about 75 μm/day
cell migration rate of normal fibroblasts [2]: essentially no effect
% Survival after 100 days ([3]; 4-methyl-3-nitro-benzoic acid alone (30 mg/kg, IP qod×5)): 0%
cell migration rate [4]: markedly reduced migration
cell migration rate [5]: less than 50 μM/day

CCCC1CCC(C2CCC(C(=O)O)CC2)CC1 (stereo not drawn) [4′-propyl-bicyclohexyl-4-carboxylic acid]
cell migration rate of normal fibroblasts [2]: essentially no effect
cell migration rate [6]: about 50 μm/day

COc1ccc(C2C(C(=O)c3ccc(Cl)cc3)N3c4ccccc4C=CC3C2(C#N)C#N)cc1OC (stereo not drawn) [NS20494, 1-(4-chloro-benzoyl)-2-(3,4-dimethoxy-phenyl)-1,2-dihydro-3aH-pyrrolo[1,2-a]quinoline-3,3-dicarbonitrile]
cell migration rate of normal fibroblasts [2]: essentially no effect
cell migration rate [7]: markedly reduced migration
cell migration rate [8]: markedly reduced migration

CC(=O)O[C@H]1C(=O)[C@@]2(C)[C@H]([C@H](OC(=O)c3ccccc3)[C@]3(O)C[C@H](OC(=O)[C@H](O)[C@@H](NC(=O)c4ccccc4)c4ccccc4)C(C)=C1C3(C)C)[C@]1(OC(C)=O)CO[C@@H]1C[C@@H]2O [Taxol, paclitaxel, reference compound]
% Survival after 100 days ([3]; Taxol alone (10 mg/kg, IP qod×5)): 0%

N#Cc1c(NC(=O)c2cccc(I)c2)sc2c1CCCC2 [compound 301, N-(3-cyano-4,5,6,7-tetrahydro-benzo[b]thiophen-2-yl)-3-iodo-benzamide]
cell migration rate of normal fibroblasts [2]: essentially no effect
cell migration rate [7]: markedly reduced migration

C1=C(c2ccc3c(c2)OCCO3)NN=C(Nc2ccccc2)S1 [compound 302, [5-(2,3-dihydro-benzo[1,4]dioxin-6-yl)-4H-[1,3,4]thiadiazin-2-yl]-phenyl-amine]
cell migration rate of normal fibroblasts [2]: essentially no effect
cell migration rate [7]: markedly reduced migration
